Experiments:
[1] = Solubility and BCS classification of compound A; type: physicochemical
[2] = from Literature 1; cited from earlier work

BCS (Biopharmaceutics Classification System) class [1]	solubility in acetone ([1]; acetone)	solubility in ethanol ([1]; ethanol)	solubility in methanol ([1]; methanol)	solubility in toluene ([1]; toluene)	solubility in water ([1]; water)	SMILES	share of clopidogrel metabolized to compound A after oral intake [2] [%]
low solubility and high permeability	very slightly soluble	slightly soluble	hardly soluble	almost insoluble	very slightly soluble	COC(=O)[C@H](c1ccccc1Cl)N1CC[C@@H]2SC(=O)C=C2C1 [Compound A, methyl(S)-2-(2-chlorophenyl)-2-((S)-2-oxo-2,6,7,7a-tetrahydrothiophene [3,2-c]pyridin-5 (4H)-yl)acetate]	
						COC(=O)[C@H](c1ccccc1Cl)N1CCc2sccc2C1 [clopidogrel]	15
